Source: patent US20080280824A1, “COMPOSITIONS AND METHODS FOR TREATMENT OF CANCER OR NEURODEGENERATIVE DISEASE WITH PEPTIDE BASED MICROTUBULE STABILIZERS OR INHIBITORS” (University of Washington, priority 2007, published 2008)

How the values were obtained:
[1] = system: alcohol dehydrogenase; experiment: In vitro chaperone assay, thermal aggregation of alcohol dehydrogenase; assay type: biochemical
[2] = system: citrate synthase; experiment: In vitro chaperone assay, thermal aggregation of citrate synthase; assay type: biochemical
[3] = system: βH crystallin; experiment: In vitro chaperone assay, thermal aggregation of βH crystallin; assay type: biochemical
[4] = system: pre-formed microtubules; experiment: Microtubule disassembly assay (DAPI fluorescence); assay type: biochemical, Bovine
Description: Microtubule disassembly assays. The effect of αB crystallin peptides and mutants on the in vitro disassembly of microtubules into soluble tubulin was evaluated using the Microtubule Stabilization/Destabilization Assay kit described above (Cytoskeleton; Denver, Colo.) as described previously^36. 34 μM pre-formed microtubules were incubated with the αB crystallin peptides (170 μM) or wt and mutant αB crystallins (6.8 μM and 34 μM) at 23° C. for 20 minutes. Incubation of microtubules at 23° C. results in the spontaneous disassembly of microtubules. The decrease in DAPI fluorescence at λ=460 nm was measured continuously for 20 minutes by exciting the samples at λ=355 nm using a Perkin Elmer Victor^3 V fluorescence plate reader.

[5] = biological target: T1, Bovine brain tubulin (Bos taurus, UniProt P81947+Q6B856); experiment: Microtubule assembly assay (DAPI fluorescence, Microtubule Stabilization/Destabilization Assay kit); assay type: biochemical
T1 construct: Bovine brain tubulin was dissolved to 200 μM; purchased Cytoskeleton; Denver, Colo; host or cells: bovine brain
Description: Microtubule assembly assays. The effect of selected αB crystallin peptides on the in vitro assembly of tubulin into microtubules was evaluated using the Microtubule Stabilization/Destabilization Assay kit (Cytoskeleton; Denver, Colo.) as described previously. Bonne et al., J Biol Chem 260:2819-25, 1985. Bovine brain tubulin was dissolved to 200 μM in 80 mM PIPES, 2 mM MgCl2, 0.5 mM EGTA, 10 μM DAPI, 1 mM GTP pH 6.9. 8.5 μl of the tubulin was mixed with 40 μl of 80 mM PIPES, 2 mM MgCl2, 0.5 mM EGTA, 7.4 μM DAPI, 16% Glycerol, 1.1 mM GTP pH 6.9 and 4.3 μl of 2 mM peptide in 2.5% DMSO, 2 mM Paclitaxel (polymerization promoter) in 100% DMSO, 15 mM CaCl2 (polymerization inhibitor) in water, or 2.5% DMSO only. Microtubule assembly was monitored by measuring the fluorescence of DAPI, a molecule whose emission fluorescence at λ=460 is enhanced 8-fold when it is incorporated into assembled microtubules. Bonne et al., J Biol Chem 260:2819-25, 1985. Fluorescence of samples were continuously read on a Perkin Elmer Victor^3 V fluorescence plate reader (Excitation λ=355 nm, Emission λ=460 nm) at 37° C. for 45 minutes.
The effect of wt and three mutant αB crystallins, Δ41-58, αAβ8, and Δ155-165 on the in vitro assembly of tubulin into microtubules was evaluated using the Microtubule Stabilization/Destabilization Assay kit described above (Cytoskeleton; Denver, Colo.). Bovine brain tubulin was dissolved to 200 μM in 80 mM PIPES, 2 mM MgCl2, 0.5 mM EGTA, 10 μM DAPI, 1 mM GTP pH 6.9. 8.5 μl of the tubulin was mixed with 40 μl of 80 mM PIPES, 2 mM MgCl2, 0.5 mM EGTA, 7.4 μM DAPI, 16% Glycerol, 1.1 mM GTP pH 6.9 and 4.3 μl of 80 μM protein in 20 mM Tris-Cl, pH8.0 or Tris-Cl buffer only. Fluorescence of samples were continuously read on a Perkin Elmer Victor^3 V fluorescence plate reader (Excitation λ=355 nm, Emission λ=460 nm) at 37° C. for 45 minutes.

[6] = system: Bovine brain tubulin; experiment: Tubulin thermal aggregation assay (absorbance at 340 nm); assay type: biochemical
Description: Tubulin aggregation assays. The effect of αB crystallin peptides and mutants on the thermal aggregation of tubulin was evaluated using ultra-violet spectroscopy. Bovine brain tubulin was dissolved to 200 μM in 80 mM PIPES, 2 mM MgCl2, 0.5 mM EGTA, pH 6.9. 4.25 μl of 0.08, 0.4, or 2 mM test peptide or protein was diluted into 40 μl of 80 mM PIPES, 2 mM MgCl2, 0.5 mM EGTA, pH 6.9. 8.5 μl of the 200 μM tubulin was added to each sample. Samples were heated at 52° C. and the absorbance at λ=340 nm was measured continuously for 60 minutes using a Pharmacia Biotech Ultrospec 3000. GTP and glycerol were not present in the samples because they induce the assembly of microtubules.

T1 sequence (P81947 whole entry): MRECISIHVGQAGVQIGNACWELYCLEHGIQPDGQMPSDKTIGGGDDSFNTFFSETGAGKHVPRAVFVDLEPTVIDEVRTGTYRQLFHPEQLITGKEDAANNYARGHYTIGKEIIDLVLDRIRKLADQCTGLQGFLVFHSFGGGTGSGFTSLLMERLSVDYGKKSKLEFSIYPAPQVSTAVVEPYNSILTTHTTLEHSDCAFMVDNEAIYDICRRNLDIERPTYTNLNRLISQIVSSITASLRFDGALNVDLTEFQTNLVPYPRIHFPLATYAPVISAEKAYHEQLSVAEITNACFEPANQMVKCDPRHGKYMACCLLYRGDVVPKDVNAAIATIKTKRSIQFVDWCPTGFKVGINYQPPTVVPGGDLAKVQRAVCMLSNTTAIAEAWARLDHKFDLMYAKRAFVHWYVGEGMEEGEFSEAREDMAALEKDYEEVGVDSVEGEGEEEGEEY
T1 sequence (Q6B856 whole entry): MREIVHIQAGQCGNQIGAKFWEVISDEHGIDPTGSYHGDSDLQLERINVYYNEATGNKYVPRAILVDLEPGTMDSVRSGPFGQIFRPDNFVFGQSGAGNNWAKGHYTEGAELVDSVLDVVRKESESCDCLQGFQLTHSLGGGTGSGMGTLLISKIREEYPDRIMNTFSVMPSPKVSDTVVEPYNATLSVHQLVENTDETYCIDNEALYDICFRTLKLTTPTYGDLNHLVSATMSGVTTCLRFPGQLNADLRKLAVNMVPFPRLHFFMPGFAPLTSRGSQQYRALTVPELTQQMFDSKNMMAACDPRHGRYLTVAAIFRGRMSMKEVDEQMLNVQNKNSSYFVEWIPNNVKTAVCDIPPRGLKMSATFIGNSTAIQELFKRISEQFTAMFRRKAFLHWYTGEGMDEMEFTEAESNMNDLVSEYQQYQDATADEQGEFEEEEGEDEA

Molecule: LTITSSLSDGV
- effect on thermal aggregation of alcohol dehydrogenase [1]: inhibited
- effect on thermal aggregation of citrate synthase [2]: inhibited
- effect on thermal aggregation of βH crystallin [3]: inhibited

Molecule: RTIPITRE
- effect on thermal aggregation of alcohol dehydrogenase [1]: inhibited
- effect on thermal aggregation of citrate synthase [2]: inhibited
- effect on thermal aggregation of βH crystallin [3]: inhibited

B1: αAβ8: human αB crystallin mutant, β8 sequence 131LTITSSLS138 replaced with homologous β8 sequence of human αA crystallin (protein)
chain: MDIAIHHPWIRRPFFPFHSPSRLFDQFFGEHLLESDLFPTSTSLSPFYLRPPSFLRAPSWFDTGLSEMRLEKDRFSVNLDVKHFSPEELKVKVLGDVIEVHGKHEERQDEHGFISREFHRKYRIPADVDPSALSCSLSSDGVLTVNGPRKQVSGPERTIPITREEKPAVTAAPKK
- microtubule disassembly relative to wt αB crystallin ([4]; mutant αB crystallin, FIG. 4): decreased
- effect on microtubule disassembly (words), vs absence of αB crystallin ([4]; wt or mutant αB crystallin (6.8 μM and 34 μM), 34 μM microtubules, 23° C., 20 minutes): completely inhibited
- microtubule assembly relative to wt αB crystallin ([5]; mutant αB crystallin, FIG. 4): increased
- effect on microtubule assembly, vs absence of αB crystallin ([5]; wt or mutant αB crystallin protein, tubulin alone normalized to 1.0): increased
- tubulin aggregation relative to wt αB crystallin ([6]; mutant αB crystallin, FIG. 4): unchanged
- effect on tubulin aggregation, vs absence of αB crystallin ([6]; wt or mutant αB crystallin protein, 52° C., 60 minutes): decreased
